Target: T1, ST3Gal-II (Rattus norvegicus, UniProt Q11205)
T1 construct: purchased Calbiochem
T1 sequence (Q11205 1-350): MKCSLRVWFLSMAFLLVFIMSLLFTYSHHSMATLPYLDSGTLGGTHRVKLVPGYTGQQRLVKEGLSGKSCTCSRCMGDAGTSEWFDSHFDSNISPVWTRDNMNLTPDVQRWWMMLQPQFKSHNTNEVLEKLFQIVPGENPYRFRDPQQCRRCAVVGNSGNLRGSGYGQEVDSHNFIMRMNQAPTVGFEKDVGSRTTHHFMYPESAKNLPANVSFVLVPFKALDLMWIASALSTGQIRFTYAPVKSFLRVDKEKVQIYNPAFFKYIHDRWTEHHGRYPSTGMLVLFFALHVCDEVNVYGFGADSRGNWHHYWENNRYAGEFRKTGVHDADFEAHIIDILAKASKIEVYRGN
Assay: Reverse sialylation by ST3Gal-II in presence of citrate or 5′-nucleotides
Assay type: biochemical
Settings: 0.2 mM [3], 7 mM 5′-CMP, no [5], Dowex-1 Formate
Protocol: FIG. 5. Effect of 5′-nucleotides on direct sialyltransferase activity (panel a) and reverse sialylation (panel b). a. Varying concentrations of 5′-CDP or 5′-CMP were added to 100 mM acceptor (specified below), 0.15 mM CMP-[9-^3H]NeuAc and either ST3Gal-II (0.2 mU), ST3Gal-III (0.5 mU) or ST6Gal-I (0.2 mU) for 4 h at 37° C. Products were separated using Sep-Pak C18 method. ST3Gal-III activity was measured using acceptor 4-O-MeGalβ1,4GlcNAcβ-O-Bn in the presence of 5′-CDP (●) and 5′-CMP (◯). ST6Gal-I activity was measured using Gal β1,4GlcNAcβ-O-Bn in the presence of 5′-CDP (▴) and 5′-CMP (Δ). ST3Gal-II using D-Fucβ1,3GalNAcα-O-Bn in the presence of 5′-CDP (▪) and 5′-CMP (□). b) Reverse sialylation by ST3Gal-II was measured in reaction mixtures containing 0.2 mM [9-^3H] [3], 7 mM 5′-CMP, ST3Gal-II (2 mU), D-Fucβ1,3GalNAcα-OBn (3.0 mM) and varying doses of either 5′-CDP (▴), 5′-UMP (◯) or 2-deoxy 5′-CMP (●) for 4 hours at 37° C. Reaction product ([9-^3H]NeuAcα2,3DFucβ1,3 GalNAcα-O-Bn) was isolated using Sep-Pak C18 method. In some runs, where was absent, the amount of CMP-NeuAc produced was quantified using the Dowex-1 Formate method in the presence of varying doses of 5′-CDP (▪).
Besides pH other distinctions were also observed between forward and reverse sialylation. In this regard, citrate ions tended to inhibit forward sialylation but not reverse sialylation activity (Table V). For these studies, the effect of citrate on the forward sialylation activity of ST3Gal-I, ST3Gal-II, ST3Gal-III and ST6Gal-I was examined. Reverse sialylation activity of ST3Gal-II was also measured in terms of: i) the formation of CMP-NeuAc from 5′-CMP; and ii) the transfer of NeuAc from this newly synthesized CMP-NeuAc to another O-glycan. From the data (Table V), it is evident that citrate inhibits the direct sialylation activity of all the enzymes mentioned above. However, both the synthesis of CMP-[9-^3H]NeuAc from 5′-CMP as well as the synthesis of [9-^3H]NeuAcα2,3D-Fucβ1,3 GalNAcα-O-Bn using the newly formed CMP-[9-^3H]NeuAc through reverse sialylation of ST3Gal-II was not inhibited by citrate.
The effect of 5′-nucleotides on forward sialylation (FIG. 5a) and reverse sialylation (FIG. 5b) were examined. […] The overall formation of [9-^3H]NeuAcα2,3D-Fucβ1,3 GalNAcα-O-Bn by the two-step reverse sialylation process, however, was inhibited by 5′-CDP and this is consistent with the finding that 5′-CDP inhibits forward sialylation in the second step.

Effect on first step of reverse sialylation (formation of CMP-[9-3H]NeuAc from 5′-CMP): did not inhibit
SMILES: Nc1ccn([C@@H]2O[C@H](COP(=O)(O)OP(=O)(O)O)[C@@H](O)[C@H]2O)c(=O)n1 [5′-CDP]
